Laboratory results from US20050256168A1, “Compositions for oral administration for the treatment of interferon-responsive disorders” (priority 2004, published 2005).
“Also recorded” adds a separate entry of the source. Where two headings read alike, the source gives them in different places.

Tests used:
[1] = system: 2′,5′ OAS gene; assay: Induction of 2′,5′ OAS genes in Hep G2 cells by R/T PCR and Southern blot-R/T PCR; conditions: 16 hours; for induction of medium (p69) and small (p40) 2′,5′ OAS genes: R/T PCR
Procedure: Hep G2 cells were treated with the indicated doses of A) alpha galactosyl ceramide or with B) N-9-oxadecyl-6-methyl-DGJ (b) for 16 hours and the induction of the medium (p69) and small (p40) isoforms of the […] OAS gene determined by R/T PCR. For each set, actin levels were also monitored as a control for loading. […] C) Southern blot- R/T PCR of RNA from Hep G2 cells treated with the indicated concentration of N-9-oxadecyl-6-methyl-DGJ or with 10^3 iU/mL interferon alpha (2a/2b) for 16 hours. Briefly, limited PCR was performed as described for 5, 10, 15 cycles and the PCR products transferred to nylon membrane before hybridization with a 1377 bp cDNA probe from nucleotides 1 to 1377 from the published OAS-40/46 gene (accession #X02874). Actin controls were performed in the same manner.
The ability of alpha galactosyl ceramide and N-9-oxadecyl-6-methyl-DGJ to directly induce the innate host defense pathway in tissue culture was determined by analysis of the induction of the 2′-5′ oligoadenylate synthetase genes (2′,5′ OAS) using an RT PCR based methodology.
Briefly, Hep G2 cells were incubated with either alpha galactose ceramide or the synthetic glycolipids shown in FIG. 1 for the desired length of time and the total RNA harvested using Tri-reagent as per manufactures directions (Gibco-BRL, Rockville, Md., USA). RNA samples were further purified using the Ambion DNA™ free kit, (Ambion, Inc., Austin, Tex., USA) before reverse transcriptase (RT) PCR with the PCR conditions and primers exactly as reported in the literature. PCR was performed in the absence of (RT) for 50 cycles to ensure no DNA contamination. Dilution experiments were used to ensure that PCR was within the linear range of the assay. Southern blot-R/T PCR of RNA from Hep G2 cells treated with the indicated concentration of N-9-oxadecyl-6-methyl-DGJ or with interferon alpha (2a/2b) for 16 hours was also performed to allow for quantification of induction. Briefly, limited PCR was performed as described above for 5, 10, 15 cycles and the PCR products transferred to nylon membrane. Hybridization was carried out using a 1377 bp cDNA probe from nucleotides I to 1377 from the published OAS40/46 gene (accession #X02874). OAS-40/46 specific bands were identified and quantified by phosphor image analysis [Bio-Rad, Hercules, Calif.].

[2] = system: HBsAg, core antigen, HBV polymerase; assay: Effect on HBsAg and core antigen production or secretion and HBV polymerase activity; assay type: cell-based, hepatitis B virus; conditions: at concentrations that were highly anti-viral
Text: Both alpha galactosyl ceramide and the “alkovirs”, described herein, have anti-hepatitis B virus activity (FIG. 2).
This indicates both that the compounds were both well tolerated at these concentrations and that the anti-viral activity cannot be explained by a direct effect upon the synthesis of viral products but rather through the activation of a cellular defense mechanism.

[3] = system: HBV; assay: Secretion of enveloped HBV DNA into culture medium of Hep G2 2.2.15 cells; assay type: cell-based, hepatitis B virus; conditions: for IC50: Hep G2 2.2.15 cells, 3 days, read-out: IC50 (anti-viral, HBV); for secretion of enveloped HBV (HBV rc DNA in culture medium): Hep G2 2.2.15, 3 days, alpha galactosyl ceramide 0.1-100 nM, N-9-oxadecyl-6-methyl-DGJ 0.8-25 μM, interferon alpha 10^3 iU/mL
[4] = system: Hep G2 2.2.15 cells; assay: MTT toxicity test; assay type: cell-based
Procedure: A) Alpha galactosyl ceramide inhibits HBV in vitro. […] Briefly, Hep G2 2.2.15 cells, which secrete hepatitis B virus, were either left untreated or treated with 10^3 iU/mL of interferon alpha (2a/2b) or 0.1 nM to 100 nM of alpha galactosyl ceramide for three days and the amount of HBV specific DNA detected in the culture medium using a method which discriminates between enveloped and non enveloped viral particles. The HBV rc DNA, which decreases with both interferon and alpha galactose ceramide treatment is indicated. […] Hep G2 2.2.15 cells were left untreated or treated with varying doses of the synthetic glycolipid N-9-oxadecyl-6-methyl-DGJ (0.8 μM to 25 μM) for 3 days and the level of HBV secreted into the culture medium detected as before. […] The HBV rc DNA, which decreases with N-9-oxadecyl-6-methyl-DGJ, interferon, and alpha galactosyl ceramide treatment is indicated. C-D) Cells treated with alpha-galactosyl ceramide or the synthetic glycolipid N-9-oxadecyl-6-methyl-DGJ were tested for viability using the standard MTT toxicity test. For panel C: X-axis: From left to right: Untreated cells; Alpha galactosyl ceramide at 10 μM, 5 μM, 2.5 μM, 1 μM, 0.5 μM, 0.1 μM. Y-axis, percent viability as compared to untreated group. For Panel D: X-axis: From left to right: Untreated cells; N-9-oxadecyl-6-methyl-DGJ at 2000 μM, 800 μM. 400 μM, 200 μM, 100 μM, 10 μm. Y-axis, percent viability as compared to untreated group.
Toxicity was determined by mitochondrial toxicity testing (MTT) of cells that had been exposed to compounds in a manner similar to the anti-viral assays except cells were treated in 24 well trays. Briefly, Hep G2 2.2.15 cells were treated with drug as indicated in the figure legends for 3 days, the media removed and replaced with 100 μl of a 10 mg/ml solution of tetrazolium bromide [[3-[4,5-dimethylthiazol-2-yl]-2,5-diphenyltetrazolium bromide, Sigma Chemicals] for one hour at 37° C. Addition of 100-200 μl of dimethylsulfoxide (DMSO) led to color development. Supernatants were removed and placed in a 96 well tray for analysis. OD values were read at 590 nm.

[5] = system: HCV replicon; assay: HCV subgenomic replicon RNA level in 9-13 cells (Northern blot); assay type: cell-based, hepatitis C virus; conditions: 48 hours
Procedure: A) Total RNA was isolated, resolved through agarose gels and hybridized to a radioactive probe specific for HCV NS5B. After washing, the blot was and re-probed with radioactive beta-actin specific sequences to control for loading of lanes.
Beta-actin protein and RNA were used as controls in these experiments.
9-13 cells were seeded in T25 flask at 3×10^6 cells. […] Northern blot analysis was done to analyze HCV replicon RNA level.
Briefly, 2 μg total RNA was electrophoresed through a 1.0% agarose gel containing 2.2 M formaldehyde, transferred to a nylon membrane and immobilized by Lw cross-linking (Stratagene). Hybridization was carried out using an alpha-[^32P]CTP-labeled probe with random primers on a 2 kb NS5B DNA fragment in a quick hybridization solution (Amersham Bioscience, Piscataway, N.J.) for 16 h at 65° C. The membranes were washed once in 2×SSC/0.1% SDS for 30 min at room temperature and twice in 0.1×SSC/0.1% SDS for 30 min at 65° C.

[6] = system: glucosidase; assay: Glucosidase inhibitory activity; assay type: biochemical
[7] = system: bovine viral diarrhea virus (BVDV); assay: BVDV antiviral activity in tissue cultures of infected MDBK cells; assay type: cell-based
Text: The IC50 for 6-O-nonyl-deoxynojirimycin, for example, bovine viral diarrhea virus (BVDV), in tissue cultures of BVDV infected MDBK cells, a surrogate of hepatitis C virus is 3 micro-molar.

[8] = system: HBV; conditions: from Antimicrob Agents Chemother. 2002; 46(12): 4004-4008; cited from earlier work

For `COCCCCCCCCN1CC(O)C(O)C(O)C1C(C)O` (centres unmarked) [N-9-oxadecyl-6-methyl-DGJ], the “fold induction of the 2′,5′ OAS gene” value ([1]; 70 μM, Southern blot-R/T PCR) was 20 fold, the “induction of medium (p69) and small (p40) 2′,5′ OAS genes” value (“induction of medium (p69) and small” below) [1] was “induced only the small (p40) 2′,5′ OAS gene expression” and the “fold increase in 2′,5′ OAS gene expression” value ([1]; lower concentrations (below 70 μM), dose dependent) was 2-15 fold. The “effect upon HBsAg production or secretion, core antigen production or secretion or HBV polymerase activity” value [2] was “Neither Alpha Galactosyl Ceramide or N-9-oxadecyl-6-methyl-DGJ had any Detectable Effect”, the IC50 [3] was roughly 1 µM and the “secretion of enveloped HBV (HBV rc DNA in culture medium)” value (“secretion of enveloped HBV” below) [3] was “exerted anti-viral activity at varying doses”. For the same compound, the CC50 [4] was greater than 2000 µM, the toxicity [4] was “little or no toxicity” and the IC50 ([5]; 9-13 cells, three separate experiments, read-out: IC50 for reduction of HCV RNA) was 1.5 µM.
With `CCCCCCCCCOCC1NCC(O)C(O)C1O` (centres unmarked) [6-O-nonyl-deoxynojirimycin] the glucosidase inhibitory activity [6] was “no glucosidase inhibitory activity”, the IC50 ([7]; BVDV infected MDBK cells, surrogate of hepatitis C virus, read-out: IC50 against BVDV) was 3 µM and the antiviral activity ([7]; virus not named at b41, BVDV assumed) was “retains antiviral activity”.
In the case of interferon alpha, the “induction of medium (p69) and small” value [1] is reported as “potent inducer of both the medium (p69) and small (p40) 2′,5′ OAS genes”, the “secretion of enveloped HBV” value [3] is reported as “inhibits secretion effectively” and the “replication of HCV RNA in 9-13 cells” value [5] is reported as “sensitive to interferon alpha”.
In the case of `CCCCCCCCCCCCCCCCCCCCCCCCCC(=O)N[C@@H](CO[C@H]1O[C@H](CO)[C@H](O)[C@H](O)[C@H]1O)[C@H](O)[C@H](O)CCCCCCCCCCCCCC` [alpha galactosyl ceramide, reference compound], the “induction of medium (p69) and small” value [1] is reported as “induced only the small (p40) 2′,5′ OAS gene expression”, the “effect upon HBsAg production or secretion, core antigen production or secretion or HBV polymerase activity” value [2] is reported as “Neither Alpha Galactosyl Ceramide or N-9-oxadecyl-6-methyl-DGJ had any Detectable Effect” and the IC50 [3] is reported as roughly 0.0004 µM. For the same compound, the “secretion of enveloped HBV” value [3] was “inhibited the secretion of enveloped HBV”, the toxicity ([4]; FIG. 2-3) was “little or no toxicity” and the CC50 ([4]; Hep G2 2.2.15 cells, 3 days, MTT, read-out: CC50) was 8 µM.
In the case of `CCOCCCCCCN1CC(O)C(O)C(O)C1C(C)O` (centres unmarked) [N-7-oxanonyl-6-methyl-DGJ], the “induction of medium (p69) and small” value [1] is given as “did not detectably induce 2′,5′ OAS gene expression” and the “anti-viral activity against hepatitis B virus” value [8] is given as “no anti-viral activity against hepatitis B virus; also recorded: limited anti viral activity against HBV”.
